Data as given in PMC10340532, “MCAK Inhibitors Induce Aneuploidy in Triple-Negative Breast Cancer Models” (Cancers, 2023).

Molecular target: T1, MCAK (Homo sapiens, UniProt Q99661)
T1 construct: gene KIF2C
T1 sequence (Q99661 2-725): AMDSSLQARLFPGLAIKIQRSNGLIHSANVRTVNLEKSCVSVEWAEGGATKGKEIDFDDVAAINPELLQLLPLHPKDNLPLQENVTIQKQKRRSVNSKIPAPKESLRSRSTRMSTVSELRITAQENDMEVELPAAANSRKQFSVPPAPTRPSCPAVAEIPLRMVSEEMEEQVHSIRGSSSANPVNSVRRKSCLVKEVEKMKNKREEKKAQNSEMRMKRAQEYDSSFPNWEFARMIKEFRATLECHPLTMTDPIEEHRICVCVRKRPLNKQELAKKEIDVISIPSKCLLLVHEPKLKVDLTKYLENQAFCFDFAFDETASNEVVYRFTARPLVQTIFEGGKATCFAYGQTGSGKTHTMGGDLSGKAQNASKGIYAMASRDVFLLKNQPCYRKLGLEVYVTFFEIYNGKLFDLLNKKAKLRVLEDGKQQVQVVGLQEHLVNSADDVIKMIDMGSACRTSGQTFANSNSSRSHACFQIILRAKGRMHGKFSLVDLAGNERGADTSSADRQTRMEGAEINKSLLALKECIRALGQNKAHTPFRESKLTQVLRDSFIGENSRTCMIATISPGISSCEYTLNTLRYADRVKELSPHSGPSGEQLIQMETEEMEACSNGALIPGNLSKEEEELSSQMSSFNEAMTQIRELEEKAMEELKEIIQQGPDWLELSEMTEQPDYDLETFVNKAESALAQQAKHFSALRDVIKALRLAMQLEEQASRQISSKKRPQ
Test: sedimentation-based microtubule depolymerization assay with purified FMCAK; FRET conformation screen, FCP counter screen
Type: biochemical

sedimentation-based microtubule depolymerization assay with purified FMCAK; FRET: 5 µM
SMILES: CC(C)c1noc(C2CCCN2C(=O)c2cc(=O)c3ccccc3o2)n1 (stereo not shown) [H9, 2042 H9]
